Values joined by “and” are separate entries in the source; they are usually repeats but may differ in a detail not shown here. Equal entries are not always repeated.
Columns and labels:
[1] = biological target: T1, recombinant human ghrelin receptor (HEK293/GRLN) (Homo sapiens, UniProt Q92847); assay: Ghrelin inverse agonist potency (EC50) with IP-1 (IP-One HTRF) assay; type: cell-based; details: inverse agonist potency, IP-1 assay; read-out: EC50 (Activity)
T1 construct: expressed in transfected cells
T1 sequence (Q92847 whole entry): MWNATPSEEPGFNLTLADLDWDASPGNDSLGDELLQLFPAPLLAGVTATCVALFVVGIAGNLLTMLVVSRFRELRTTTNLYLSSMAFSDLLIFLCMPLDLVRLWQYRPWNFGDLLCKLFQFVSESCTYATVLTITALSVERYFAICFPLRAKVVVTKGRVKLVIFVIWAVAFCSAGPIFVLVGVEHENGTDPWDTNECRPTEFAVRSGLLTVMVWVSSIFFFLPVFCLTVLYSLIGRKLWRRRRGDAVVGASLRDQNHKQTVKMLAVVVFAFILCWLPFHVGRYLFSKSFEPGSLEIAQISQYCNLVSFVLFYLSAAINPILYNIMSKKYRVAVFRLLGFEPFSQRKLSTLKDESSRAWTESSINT
Outline: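 IP-1 accumulation was measured by HTRF (IP1-d2/Tb-cryptate, 620/665 nm read after 1 hour at room temperature) following 1 hour of compound treatment at 37° C. Cells were HEK293 stably expressing human ghrelin receptor, plated a day earlier on Matrigel. Inverse agonist potency was reported as EC50.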

[2] = biological target: T2, GHSR-1a (HEK293/GHSR1a cell line) (Homo sapiens, UniProt Q92847); assay: Ghrelin antagonist potency (IC50) with calcium FLIPR assay, ghrelin 10 nM; type: cell-based; details: ghrelin antagonist potency, read-out: IC50 (Activity)
T2 construct: expressed in transfected cells; host or cells: HEK293/GHSR1a cell line
T2 sequence (Q92847 whole entry): as above
Outline: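 The cells were plated a day ahead and loaded with a calcium-sensitive dye. Test compound was then added and incubated 15 min, followed by ghrelin. Antagonist potency was calculated from inhibition of the response to 10 nM ghrelin, and agonist potency from the calcium rise caused by compound alone.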

[3] = Metabolic stability in human liver microsomes; type: in vitro ADME
Outline: (§1)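 First, microsomes and compound are preincubated 5 min at 37 °C in pH 7.4 phosphate buffer. Next, an NADPH regenerating system starts the reaction. Then aliquots are quenched cold at 10, 30 and 90 min, centrifuged and analysed by LC-MS/MS.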

[4] = Metabolic stability in mouse liver microsomes; type: in vitro ADME
Outline: as §1

[5] = Animal PK study in mouse via i.v., p.o. and s.c. administration; type: in vivo; details: for PK CLiv / PK Vdiv / PK t1/2iv: i.v.; for PK CLpo / PK Vdpo / PK t1/2po: p.o.
Outline: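 Plasma drug levels were measured by LC-MS/MS after acetonitrile precipitation, with blood drawn up to 24 h post-dose (from 0.083 h i.v./s.c., 0.25 h oral) in mice or rats. Animals received one dose by gavage in DMSO/methylcellulose, or by tail-vein or subcutaneous injection in DMSO/HP-β-cyclodextrin.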

[6] = Plasma protein binding (PPB), human; type: in vitro ADME; details: read-out: PPB (H)
[7] = Plasma protein binding (PPB), mouse; type: in vitro ADME
[8] = Plasma protein binding (PPB), rat; type: in vitro ADME; details: read-out: PPB (R) (converted)
[9] = Plasma protein binding (PPB), dog; type: in vitro ADME; details: read-out: PPB (D) (converted)
[10] = Metabolic stability in dog liver microsomes; type: in vitro ADME
Outline: as §1

[11] = Metabolic stability in rat liver microsomes; type: in vitro ADME
Outline: as §1

[12] = Animal PK study in rat via i.v., p.o. and s.c. administration; type: in vivo; details: rat
[13] = biological target: hERG (Homo sapiens, UniProt Q12809); assay: hERG inhibition
Sequence of hERG (Q12809 whole entry): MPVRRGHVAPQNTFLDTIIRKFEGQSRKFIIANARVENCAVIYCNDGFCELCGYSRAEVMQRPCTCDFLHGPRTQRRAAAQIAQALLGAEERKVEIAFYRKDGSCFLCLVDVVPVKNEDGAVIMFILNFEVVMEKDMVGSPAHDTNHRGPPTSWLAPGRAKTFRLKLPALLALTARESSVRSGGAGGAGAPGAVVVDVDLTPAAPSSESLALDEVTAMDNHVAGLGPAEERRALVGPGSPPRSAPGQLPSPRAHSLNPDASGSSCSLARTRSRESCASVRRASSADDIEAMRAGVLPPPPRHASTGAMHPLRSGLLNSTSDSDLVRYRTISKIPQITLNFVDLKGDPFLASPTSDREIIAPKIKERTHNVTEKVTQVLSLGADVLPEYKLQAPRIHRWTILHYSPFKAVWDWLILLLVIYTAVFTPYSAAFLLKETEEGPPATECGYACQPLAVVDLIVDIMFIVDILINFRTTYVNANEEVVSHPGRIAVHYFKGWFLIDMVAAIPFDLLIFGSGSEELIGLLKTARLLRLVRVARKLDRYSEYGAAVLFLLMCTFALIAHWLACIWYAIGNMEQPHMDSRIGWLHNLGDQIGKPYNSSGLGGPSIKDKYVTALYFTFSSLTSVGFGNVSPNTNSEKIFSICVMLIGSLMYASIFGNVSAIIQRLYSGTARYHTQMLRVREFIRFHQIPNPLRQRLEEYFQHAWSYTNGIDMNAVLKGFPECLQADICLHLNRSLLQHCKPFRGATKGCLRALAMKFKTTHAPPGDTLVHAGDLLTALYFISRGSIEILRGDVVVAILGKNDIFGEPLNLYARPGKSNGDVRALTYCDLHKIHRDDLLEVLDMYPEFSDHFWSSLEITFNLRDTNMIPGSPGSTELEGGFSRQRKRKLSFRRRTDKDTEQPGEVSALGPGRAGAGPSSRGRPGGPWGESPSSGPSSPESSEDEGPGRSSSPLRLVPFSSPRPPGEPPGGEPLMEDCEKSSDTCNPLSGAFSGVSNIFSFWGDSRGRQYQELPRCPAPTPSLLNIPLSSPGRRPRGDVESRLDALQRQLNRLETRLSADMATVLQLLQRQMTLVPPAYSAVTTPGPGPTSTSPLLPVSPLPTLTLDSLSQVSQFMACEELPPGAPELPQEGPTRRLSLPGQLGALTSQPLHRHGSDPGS

[14] = Animal PK study in dog (i.v., p.o.); type: in vivo
[15] = tested on: male C57BL/6J mice; assay: Food intake test in mouse (GHSR1a inverse agonists), cumulative food intake at 1, 2, 4, 8 and 24 hrs; type: in vivo
Procedure: Evaluation of Inverse Agonist on Food Intake Test in Mouse:
Male C57BL/6J mice, 18-22 g body weight, were fasted overnight (16 h before compound administration) and placed in a regular light dark cycle (6:00-18:00 light/18:00-6:00 dark). After 1 wk acclimation, animals were sorted into two groups (n=6 each, 2 per cage) based on body weight. Animals in group one were be treated with vehicle and animals in group 2 were treated with the test agent (n=6 for each group). The cumulative food intake was evaluated at 1, 2, 4, 8 and 24 hrs after drug or vehicle treatment. Food intake was measured by subtracting uneaten food from the initial premeasured food.
Food Intake Study—Evaluation of GHSR1a inverse agonists on Food Intake Test in Mouse:
Twelve male C57BL/6J mice, weighing 18-22 g each, were fasted overnight (16 h before compound administration) and placed in a regular light dark cycle (6:00-18:00 light/18:00-6:00 dark). After 1 week acclimation, animals were sorted into two groups (n=6 each, 2 per cage) based on body weight. Animals in group one were treated with carrier minus the test compound. (control group) and animals in group 2 were treated with carrier with the test compound (experimental group). The cumulative food intake was evaluated at 1, 2, 4, 8 and 24 hrs after experimental or control treatment. Food intake was measured by subtracting uneaten food from the initial premeasured food.

| SMILES | EC50 [1] [nM] | IC50 [2] [nM] | Metabolic Stability Study H = human [3] | Metabolic Stability Study M = mouse [4] | PK F [5] | PK CLiv [5] [mL/min/kg] | PK Vdiv [5] [L/kg] | PK t1/2iv [5] | PK CLpo [5] [mL/min/kg] | PK Vdpo [5] | PK t1/2po [5] | fraction unbound [6] | fraction unbound [7] | fraction unbound [8] | fraction unbound [9] | Metabolic Stability Study D = dog [10] | Metabolic Stability Study R = rat [11] | Food Intake Study ([15]; 30 mg/kg po fasted mice) | further results |
| --- | --- | --- | --- | --- | --- | --- | --- | --- | --- | --- | --- | --- | --- | --- | --- | --- | --- | --- | --- |
| C[C@H](NC(=O)Nc1ccc(S(=O)(=O)Cc2ccc(CO)cc2)cc1)c1cccc(Cl)c1Cl [H1060, (S)-1-(1-(2,3-dichlorophenyl)ethyl)-3-(4-((4-(hydroxymethyl)benzyl)sulfonyl)phenyl)urea] | 40.8 | 280 | 40 µL/min/mg | 108.7 µL/min/mg | 18.8% | 68.8 | 8.25 | 1.37 h | 368 | 22.4 L/kg | 0.7 h | 0.0013 | 0.0019 | 0.0018 | 0.0012 |  |  |  |  |
| C[C@H](NC(=O)Nc1ccc(S(=O)(=O)Nc2ccc(CO)cc2)cc1)c1cccc(Cl)c1Cl [H1062, (S)-4-(3-(1-(2,3-dichlorophenyl)ethyl)ureido)-N-(4-(hydroxymethyl)phenyl) benzenesulfonamide] | 58 | 222 | 32.4 µL/min/mg | 67.2 µL/min/mg |  |  |  |  |  |  |  | 0.0012 | 0.0019 | 0.0012 | 0.0017 |  |  |  |  |
| CC(NC(=O)Nc1ccc(S(=O)(=O)Cc2ccc3c(c2)CN(C)C3)cc1)c1ccccc1 (stereo not shown) [H1194, 1-(4-(((2-methylisoindolin-5-yl)methyl)sulfonyl)phenyl)-3-(1-phenylethyl)urea] | 16.8 | 38.3 | 111.6 µL/min/mg | 64.2 µL/min/mg | 15.56 (M); % | 60.2 | 6.33 | 1.21 (M); h | 380 | 53.3 (M); L/Kg | 1.62 (M); h | 0.076 | 0.06 |  |  | 14 µL/min/mg | 56 µL/min/mg |  | PK F [12]: 11.9 (R); %; PK CLiv ([12]; i.v.): 94.7 mL/min/kg; PK Vdiv ([12]; i.v.): 8.86 (R); L/Kg; PK t1/2iv ([12]; i.v.): 1.08 (R); h; PK CLpo ([12]; p.o.): 848 mL/min/kg; PK Vdpo ([12]; p.o.): 232.2 (R); L/Kg; PK t1/2po ([12]; p.o.): 4.54 (R); h; hERG inh [13]: 22.6 µM; PK F [14]: 54.07 (D) %; PK CLiv ([14]; i.v.): 16.7 mL/min/kg; PK Vdiv ([14]; i.v.): 2.11 (D) L/Kg; PK t1/2iv ([14]; i.v.): 1.44 (D) h; PK CLpo ([14]; p.o.): 30.7 mL/min/kg; PK Vdpo ([14]; p.o.): 4.05 (D) L/Kg; PK t1/2po ([14]; p.o.): 1.5 (D) h |
| C[C@H](NC(=O)Nc1ccc(S(=O)(=O)Cc2ccc3c(c2)CCN(C)C3)cc1)c1cccc(Cl)c1Cl [H1071, (S)-1-(1-(2,3-dichlorophenyl)ethyl)-3-(4-(((2-methyl-1,2,3,4-tetrahydroisoquinolin-6-yl)methyl)sulfonyl)phenyl)urea] | 1.7 | 5 |  | 80.7 µL/min/mg and 152.5 µL/min/mg | 19.9% | 28.5 | 2.83 | 1.15 h | 138 | 21.1 L/kg | 1.77 h | 0.0089 | 0.0098 | 0.0087 | 0.0082 | 172.6 µL/min/mg and 160.7 µL/min/mg | 274 µL/min/mg and 188 µL/min/mg |  |  |
| CC(c1ccc2c(c1)CCNC2)S(=O)(=O)c1ccc(NC(=O)N[C@@H](C)c2cccc(Cl)c2Cl)cc1.Cl (stereo partly drawn) [H1080, 1-((S)-1-(2,3-dichlorophenyl)ethyl)-3-(4-((1-(1,2,3,4-tetrahydroisoquinolin-6-yl)ethyl)sulfonyl)phenyl)urea] | 11.1 | 22.6 | H < 10 M < 10 R = not reported D = not reported μL/min/mg | H < 10 M < 10 R = not reported D = not reported μL/min/mg |  |  |  |  |  |  |  |  |  |  |  |  |  |  | hERG inh [13]: 3.57 µM |
| C[C@H](NC(=O)Nc1ccc(S(=O)(=O)Cc2ccc(CC(C)(C)N)cc2)cc1)c1cccc(Cl)c1Cl [H0969, (S)-1-(4-((4-(2-amino-2-methylpropyl)benzyl)sulfonyl)phenyl)-3-(1-(2,3-dichlorophenyl)ethyl)urea] | 18.9 | 53 | 19.5 µL/min/mg | 74.4 µL/min/mg | 1.3% | 7.67 | 1.97 | 2.96 h | 450.2 | 168.2 L/kg | 4.32 h |  |  |  |  |  |  | 30 mg/kg po fasted - inh |  |
| CC(C)(N)Cc1ccc(NS(=O)(=O)c2ccc(NC(=O)NCc3cccc(Cl)c3Cl)cc2)cc1 [H0968, N-(4-(2-amino-2-methylpropyl)phenyl)-4-(3-(2,3-dichlorobenzyl)ureido) benzenesulfonamide] | 5.7 | 44 | 32.5 µL/min/mg | 27.4 µL/min/mg |  |  |  |  |  |  |  |  |  |  |  |  |  | 30 mg/kg po fasted - inh |  |
| CNC(C)(C)Cc1ccc(NS(=O)(=O)c2ccc(NC(=O)N[C@@H](C)c3ccc(-c4cnccn4)c(Cl)c3Cl)cc2)cc1 [H0941, (S)-4-(3-(1-(2,3-dichloro-4-(pyrazin-2-yl)phenyl)ethyl)ureido)-N-(4-(2-methyl-2-(methylamino)propyl)phenyl) benzenesulfonamide] | 2.8 | 7.7 | 47.7 µL/min/mg | 66.2 µL/min/mg |  |  |  |  |  |  |  | 0.0002 | 0.0005 |  |  | 48.2 µL/min/mg | 36.2 µL/min/mg |  |  |
| C[C@H](NC(=O)Nc1ccc(S(=O)(=O)Nc2ccc(CC(C)(C)N(C)C)cc2)cc1)c1cccc(Cl)c1Cl [H0967, (S)-4-(3-(1-(2,3-dichlorophenyl)ethyl)ureido)-N-(4-(2-(dimethylamino)-2-methylpropyl)phenyl) benzenesulfonamide] | 4.7 | 16 | 38.2 µL/min/mg | 58 µL/min/mg | 0.2% | 39 | 8.62 | 2.56 h | 11620 | 2326.2 L/kg | 2.31 h |  |  |  |  |  |  | 30 mg/kg po fasted - inh 5 mg/kg sc fasted - inh | Food Intake Study ([15]; 5 mg/kg sc fasted mice): 30 mg/kg po fasted - inh 5 mg/kg sc fasted - inh |
| C[C@H](NC(=O)Nc1ccc(S(=O)(=O)Cc2ccc3c(c2)CNC3)cc1)c1ccccc1 [H1215, (S)-1-(4-((isoindolin-5-ylmethyl)sulfonyl)phenyl)-3-(1-phenylethyl)urea] | 4.6 | 12.4 | 21 µL/min/mg | 13.7 µL/min/mg |  |  |  |  |  |  |  | 0.097 | 0.093 | 0.065 |  | 16.6 µL/min/mg | 18.5 µL/min/mg |  |  |

— patent publication US10501479B2, “Benzenesulfonyl-asymmetric ureas and medical uses thereof” (HELSINN HEALTHCARE SA, priority 2016, dated 2019)
